Laboratory results published in PubChem BioAssay AID1963443 (Molecular Pharmacology Branch, DTP, NCI, 2024).
Several values for one entry are separate records, joined by “and”; a condition that tells them apart may be missing. Equal values may be shown once.

System: MDA-MB-231 complex spheroids, growth inhibition
Assay: Anticancer human tumor MDA-MB-231 cell line growth inhibition [Asc];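 further: spheroids exposed to compounds for 7 days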
Conditions: for viability, T/C: stronger effect = lower value
Procedure, shortened: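 Stromal components (HUVEC and hMSC) are co-assembled with the cancer cells into multicellular spheroids. Drugs are then added singly or paired, at concentrations falling by half-log increments from a clinically achievable maximum, capped at 10 microM without known Cmax.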

**Q.** For `O=C(c1ccc(F)c(F)c1Nc1ccc(I)cc1F)N1CC(O)([C@@H]2CCCCN2)C1` + Cc1c(S(C)(=O)=O)c(-c2cc(F)cc(N3CCN(c4ccc(NS(=O)(=O)c5ccc(NC(CCN6CCC(C(=O)OCCCP(=O)(O)O)CC6)CSc6ccccc6)c(S(=O)(=O)C(F)(F)F)c5)cc4)CC3)c2)c(-c2ccc(Cl)cc2)n1C(C)C, which IC50 (curve of first compound, second compound 0.1 µM) is on record?
**A.** Its IC50 is 76.3 nM.

**Q.** What about the IC50 (curve of first compound, second compound 0.316 µM) of the same compound?
**A.** Its IC50 is 103 nM.

**Q.** What about the IC50 (curve of first compound, second compound 1 µM) of the same compound?
**A.** Its IC50 is 71.3 nM.

**Q.** And the IC50 (curve of first compound, second compound 3.16 µM)?
**A.** Its IC50 is 117 nM.

**Q.** And the IC50 (curve of first compound, second compound 10 µM)?
**A.** The IC50 was 116 nM.

**Q.** And the viability, T/C (second compound 0.1 µM, first compound 0.00316 µM)?
**A.** Its viability, T/C is 87.8%.

**Q.** And the viability, T/C (second compound 0.1 µM, first compound 0.01 µM)?
**A.** Its viability, T/C is 68.8%.

**Q.** And the viability, T/C (second compound 0.1 µM, first compound 0.0316 µM)?
**A.** Its viability, T/C is 60.6%.

**Q.** What about the viability, T/C (second compound 0.1 µM, first compound 0.1 µM) of the same compound?
**A.** The viability, T/C was 51.9%.

**Q.** What about the viability, T/C (second compound 0.1 µM, first compound 0.316 µM) of the same compound?
**A.** The viability, T/C was 24.9%.

**Q.** What about the viability, T/C (second compound 0.1 µM, first compound 1 µM) of the same compound?
**A.** Its viability, T/C is 1.38%.

**Q.** And the viability, T/C (second compound 0.316 µM, first compound 0.00316 µM)?
**A.** Its viability, T/C is 86.3%.

**Q.** And the viability, T/C (second compound 0.316 µM, first compound 0.01 µM)?
**A.** The viability, T/C was 61.9%.

**Q.** What about the viability, T/C (second compound 0.316 µM, first compound 0.0316 µM) of the same compound?
**A.** The viability, T/C was 64.7%.

**Q.** And the viability, T/C (second compound 0.316 µM, first compound 0.1 µM)?
**A.** The viability, T/C was 54.8%.

**Q.** What about the viability, T/C (second compound 0.316 µM, first compound 0.316 µM) of the same compound?
**A.** The viability, T/C was 14.6%.

**Q.** And the viability, T/C (second compound 0.316 µM, first compound 1 µM)?
**A.** The viability, T/C was 0.96%.

**Q.** And the viability, T/C (second compound 1 µM, first compound 0.00316 µM)?
**A.** The viability, T/C was 96.5%.

**Q.** And the viability, T/C (second compound 1 µM, first compound 0.01 µM)?
**A.** The viability, T/C was 59.5%.

**Q.** And the viability, T/C (second compound 1 µM, first compound 0.0316 µM)?
**A.** The viability, T/C was 66.7%.

**Q.** What about the viability, T/C (second compound 1 µM, first compound 0.1 µM) of the same compound?
**A.** Its viability, T/C is 60.3%.

**Q.** And the viability, T/C (second compound 1 µM, first compound 0.316 µM)?
**A.** Its viability, T/C is 10.8%.

**Q.** And the viability, T/C (second compound 1 µM, first compound 1 µM)?
**A.** Its viability, T/C is 1.16%.

**Q.** And the viability, T/C (second compound 3.16 µM, first compound 0.00316 µM)?
**A.** The viability, T/C was 81.9%.

**Q.** What about the viability, T/C (second compound 3.16 µM, first compound 0.01 µM) of the same compound?
**A.** The viability, T/C was 56.5%.

**Q.** And the viability, T/C (second compound 3.16 µM, first compound 0.0316 µM)?
**A.** Its viability, T/C is 60.4%.

**Q.** What about the viability, T/C (second compound 3.16 µM, first compound 0.1 µM) of the same compound?
**A.** Its viability, T/C is 57.2%.

**Q.** And the viability, T/C (second compound 3.16 µM, first compound 0.316 µM)?
**A.** Its viability, T/C is 5.78%.

**Q.** And the viability, T/C (second compound 3.16 µM, first compound 1 µM)?
**A.** Its viability, T/C is 0.65%.

**Q.** And the viability, T/C (second compound 10 µM, first compound 0.00316 µM)?
**A.** The viability, T/C was 93.9%.

**Q.** And the viability, T/C (second compound 10 µM, first compound 0.01 µM)?
**A.** The viability, T/C was 93.1%.

**Q.** And the viability, T/C (second compound 10 µM, first compound 0.0316 µM)?
**A.** Its viability, T/C is 89%.

**Q.** What about the viability, T/C (second compound 10 µM, first compound 0.1 µM) of the same compound?
**A.** Its viability, T/C is 57.1%.

**Q.** What about the viability, T/C (second compound 10 µM, first compound 0.316 µM) of the same compound?
**A.** The viability, T/C was 0.97%.

**Q.** And the viability, T/C (second compound 10 µM, first compound 1 µM)?
**A.** The viability, T/C was 0.83%.

**Q.** For `C#Cc1c(F)ccc2cc(O)cc(-c3ncc4c(N5CC6CCC(C5)N6)nc(OCC56CCCN5CC(F)C6)nc4c3F)c12` (centres undefined), which viability, T/C (compound 0.0316 µM) is on record?
**A.** The viability, T/C was 120% and 100% and 106%.

**Q.** And the viability, T/C (compound 0.1 µM)?
**A.** Its viability, T/C is 95.9% and 97.5% and 97.1%.

**Q.** And the viability, T/C (compound 0.316 µM)?
**A.** The viability, T/C was 111% and 98.8% and 91.7%.

**Q.** And the viability, T/C (compound 1 µM)?
**A.** The viability, T/C was 66.2% and 72.6% and 72.7%.

**Q.** What about the viability, T/C (compound 3.16 µM) of the same compound?
**A.** Its viability, T/C is 48.7% and 64.1% and 62.1%.

**Q.** What about the viability, T/C (compound 10 µM) of the same compound?
**A.** The viability, T/C was 35.2% and 51.7% and 50.2%.

**Q.** What about the IC50 (curve of compound) of the same compound?
**A.** The IC50 was 2170 nM and > 10000 nM.

**Q.** What does the source list for `NC1CCC(NC2CC2c2ccccc2)CC1` (centres undefined)?
**A.** viability, T/C (compound 0.000316 µM): 102% and 98.5% and 104%; viability, T/C (compound 0.001 µM): 108% and 99% and 105%; viability, T/C (compound 0.00316 µM): 105% and 98.7% and 107%; viability, T/C (compound 0.01 µM): 105% and 98.6% and 101%; viability, T/C (compound 0.0316 µM): 103% and 96.8% and 107%; viability, T/C (compound 0.1 µM): 104% and 98.3% and 99.8%; IC50 (curve of compound): > 100 nM

**Q.** Which results are given for `C=C(F)C(=O)N1CCN(c2nc(OCC3CCCN3C)nc3c2CCN(c2cccc4cccc(Cl)c24)C3)CC1CC#N` (centres undefined) + CCN1C(C(=O)NC23CCC(C(=O)O)(CC2)CC3)C(c2cccc(Cl)c2F)C2(C(=O)Nc3cc(Cl)ccc32)C12CCCCC2?
**A.** IC50 (curve of first compound, second compound 0.03 µM): 3310 nM; IC50 (curve of first compound, second compound 0.0949 µM): 3220 nM; IC50 (curve of first compound, second compound 0.3 µM): 3090 nM; IC50 (curve of first compound, second compound 0.949 µM): 3670 nM; IC50 (curve of first compound, second compound 3 µM): 2370 nM; viability, T/C (second compound 0.03 µM, first compound 0.0316 µM): 102%; viability, T/C (second compound 0.03 µM, first compound 0.1 µM): 101%; viability, T/C (second compound 0.03 µM, first compound 0.316 µM): 88.1%; viability, T/C (second compound 0.03 µM, first compound 1 µM): 90.2%; viability, T/C (second compound 0.03 µM, first compound 3.16 µM): 51.2%; viability, T/C (second compound 0.03 µM, first compound 10 µM): 0.47%; viability, T/C (second compound 0.0949 µM, first compound 0.0316 µM): 100%; viability, T/C (second compound 0.0949 µM, first compound 0.1 µM): 108%; viability, T/C (second compound 0.0949 µM, first compound 0.316 µM): 97.9%; viability, T/C (second compound 0.0949 µM, first compound 1 µM): 97.1%; viability, T/C (second compound 0.0949 µM, first compound 3.16 µM): 50.7%; viability, T/C (second compound 0.0949 µM, first compound 10 µM): 0.33%; viability, T/C (second compound 0.3 µM, first compound 0.0316 µM): 112%; viability, T/C (second compound 0.3 µM, first compound 0.1 µM): 107%; viability, T/C (second compound 0.3 µM, first compound 0.316 µM): 110%; viability, T/C (second compound 0.3 µM, first compound 1 µM): 105%; viability, T/C (second compound 0.3 µM, first compound 3.16 µM): 48.9%; viability, T/C (second compound 0.3 µM, first compound 10 µM): 0.55%; viability, T/C (second compound 0.949 µM, first compound 0.0316 µM): 112%; viability, T/C (second compound 0.949 µM, first compound 0.1 µM): 116%; viability, T/C (second compound 0.949 µM, first compound 0.316 µM): 114%; viability, T/C (second compound 0.949 µM, first compound 1 µM): 107%; viability, T/C (second compound 0.949 µM, first compound 3.16 µM): 57.3%; viability, T/C (second compound 0.949 µM, first compound 10 µM): 1.4%; viability, T/C (second compound 3 µM, first compound 0.0316 µM): 94.3%; viability, T/C (second compound 3 µM, first compound 0.1 µM): 99.5%; viability, T/C (second compound 3 µM, first compound 0.316 µM): 97.6%; viability, T/C (second compound 3 µM, first compound 1 µM): 86.9%; viability, T/C (second compound 3 µM, first compound 3.16 µM): 37.7%; viability, T/C (second compound 3 µM, first compound 10 µM): 0.24%
